In BindingDB's records for doi:10.1016/s0026-0495(96)90072-4 (Sandoz Pharma, 1996):
Positions of bridges follow the written chain, without caps; N, C: chain ends. Non-standard residues stand in square brackets, D forms with d. Residues, ends and D or L forms follow the SMILES beside them. *: point of attachment. d1Nal = N[C@H](Cc1cccc2ccccc12)C(=O)O; Asu = N[C@@H](CCCCCC(=O)O)C(=O)O; Nphe = O=C(O)CNCc1ccccc1; Ahp = NCCCCCCC(=O)O; Bn = c1ccc(C*)cc1

How the values were obtained:
[1] = molecular target: Somatostatin receptor type 3 (Homo sapiens, UniProt P32745)
[2] = molecular target: Somatostatin receptor type 2 (Homo sapiens, UniProt P30874)
[3] = molecular target: Somatostatin receptor type 4 (Homo sapiens, UniProt P31391)
[4] = molecular target: Somatostatin receptor type 1 (Homo sapiens, UniProt P30872)
[5] = molecular target: Somatostatin receptor type 5 (Homo sapiens, UniProt P35346)
Somatostatin receptor type 5, sequence (P35346 whole entry): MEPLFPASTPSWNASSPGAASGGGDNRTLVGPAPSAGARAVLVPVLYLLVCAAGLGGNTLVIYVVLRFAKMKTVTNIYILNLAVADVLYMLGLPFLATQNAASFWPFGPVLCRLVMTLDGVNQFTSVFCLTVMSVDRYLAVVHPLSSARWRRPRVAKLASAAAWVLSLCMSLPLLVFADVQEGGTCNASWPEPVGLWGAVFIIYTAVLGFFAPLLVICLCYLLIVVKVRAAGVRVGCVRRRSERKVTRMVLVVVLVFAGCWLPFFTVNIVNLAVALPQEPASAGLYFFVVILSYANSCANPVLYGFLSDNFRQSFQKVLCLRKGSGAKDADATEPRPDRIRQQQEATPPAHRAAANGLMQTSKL

Somatostatin receptor type 1, sequence (P30872 whole entry): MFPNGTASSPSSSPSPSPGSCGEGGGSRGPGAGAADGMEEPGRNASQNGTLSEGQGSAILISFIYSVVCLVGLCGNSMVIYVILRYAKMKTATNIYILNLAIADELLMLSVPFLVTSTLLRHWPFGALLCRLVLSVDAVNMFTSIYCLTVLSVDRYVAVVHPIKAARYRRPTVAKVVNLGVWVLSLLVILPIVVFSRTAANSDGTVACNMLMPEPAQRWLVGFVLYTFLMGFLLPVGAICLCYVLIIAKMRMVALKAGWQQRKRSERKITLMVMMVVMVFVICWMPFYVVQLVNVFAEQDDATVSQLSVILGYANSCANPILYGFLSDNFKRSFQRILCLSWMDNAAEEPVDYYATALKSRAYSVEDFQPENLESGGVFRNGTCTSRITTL
Somatostatin receptor type 3, sequence (P32745 whole entry): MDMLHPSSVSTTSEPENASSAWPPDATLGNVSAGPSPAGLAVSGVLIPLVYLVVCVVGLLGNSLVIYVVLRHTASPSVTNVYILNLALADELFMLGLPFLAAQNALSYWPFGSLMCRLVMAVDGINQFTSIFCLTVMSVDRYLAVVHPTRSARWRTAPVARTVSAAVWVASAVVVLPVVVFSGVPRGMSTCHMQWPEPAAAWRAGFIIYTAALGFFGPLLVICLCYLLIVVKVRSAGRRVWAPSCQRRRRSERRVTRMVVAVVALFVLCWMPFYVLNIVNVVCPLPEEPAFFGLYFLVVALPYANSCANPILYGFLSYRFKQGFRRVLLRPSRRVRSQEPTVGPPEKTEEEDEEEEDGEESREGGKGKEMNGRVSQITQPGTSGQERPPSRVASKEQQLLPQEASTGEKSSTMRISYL
Somatostatin receptor type 2, sequence (P30874 whole entry): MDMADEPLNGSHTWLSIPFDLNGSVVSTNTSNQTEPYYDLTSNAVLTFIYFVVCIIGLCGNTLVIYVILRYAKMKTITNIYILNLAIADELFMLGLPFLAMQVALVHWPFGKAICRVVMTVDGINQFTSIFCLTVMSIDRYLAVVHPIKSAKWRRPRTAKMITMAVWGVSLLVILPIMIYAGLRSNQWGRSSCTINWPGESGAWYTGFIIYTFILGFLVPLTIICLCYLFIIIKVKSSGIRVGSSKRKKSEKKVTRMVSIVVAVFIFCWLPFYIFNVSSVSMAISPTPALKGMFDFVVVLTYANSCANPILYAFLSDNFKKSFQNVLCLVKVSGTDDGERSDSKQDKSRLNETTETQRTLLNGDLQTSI
Somatostatin receptor type 4, sequence (P31391 whole entry): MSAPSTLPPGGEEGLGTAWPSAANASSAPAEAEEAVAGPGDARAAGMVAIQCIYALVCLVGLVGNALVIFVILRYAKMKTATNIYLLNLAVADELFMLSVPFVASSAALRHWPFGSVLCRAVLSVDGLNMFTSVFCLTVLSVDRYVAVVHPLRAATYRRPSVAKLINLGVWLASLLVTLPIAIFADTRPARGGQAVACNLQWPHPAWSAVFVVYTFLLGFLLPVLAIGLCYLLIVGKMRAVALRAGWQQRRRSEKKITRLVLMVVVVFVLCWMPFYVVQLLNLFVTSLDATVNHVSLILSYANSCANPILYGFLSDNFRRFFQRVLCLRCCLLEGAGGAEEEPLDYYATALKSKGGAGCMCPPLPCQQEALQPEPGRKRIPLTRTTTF

Row | Ki [1] | Ki [2] | Ki [3] | Ki [4] | Ki [5] | Structure (SMILES)
1 | 398 nM | 2510 nM | 3160 nM | 398 nM | 316 nM | C[C@@H](OCc1ccccc1)[C@@H]1NC(=O)[C@H](CCCCN)NC(=O)[C@@H](Cc2c[nH]c3ccccc23)NC(=O)[C@H](Cc2ccccc2)NC(=O)CCCCCCNC1=O [c[Aha-Phe-D-Trp-Lys-Thr(Bzl)]] (cyclo([Ahp]F[dW]KT(Bn)))
2 | 0.39 nM | 0.79 nM | 1.99 nM | 3.98 nM | 2.51 nM | C[C@@H](O)[C@@H]1NC(=O)[C@H](Cc2ccc(O)cc2)NC(=O)[C@H]([C@@H](C)O)NC(=O)[C@H](CCCCN)NC(=O)[C@H](Cc2c[nH]c3ccccc23)NC(=O)[C@H](Cc2ccccc2)NC(=O)[C@H](Cc2ccccc2)NC(=O)[C@H](CC(N)=O)NC(=O)[C@H](CCCCN)NC(=O)CCCCC[C@@H](C(=O)O)NC(=O)[C@H](CO)NC1=O [CGP-23996] (KNFFWKTYTS[Asu]-OH; lactam N-11)
3 | 100 nM | 1.58 nM | 100 nM | 100 nM | 5.01 nM | CC(=O)N(CC(=O)NC1CSSCC(C(=O)NC(Cc2c[nH]c3ccccc23)C(N)=O)NC(=O)C(C(C)C)NC(=O)C(CCCCN)NC(=O)C(Cc2c[nH]c3ccccc23)NC(=O)C(Cc2ccc(O)cc2)NC1=O)Cc1ccccc1 (stereo not drawn) [RC 160II] (Ac-[Nphe]CYWKVCW-NH2; disulfide 2-7; configuration not given here)
4 | 1.99 nM | 7.94 nM | 15.8 nM | 6.3 nM | 1.58 nM | C[C@@H](O)[C@H](NC(=O)[C@H](Cc1ccccc1)NC(=O)[C@@H](NC(=O)[C@H](CCCCN)NC(=O)[C@@H](Cc1c[nH]c2ccccc12)NC(=O)[C@H](Cc1ccccc1)NC(=O)[C@H](Cc1ccccc1)NC(=O)[C@H](N)Cc1ccccc1)[C@@H](C)O)C(N)=O [CAS_133073-82-2] (H-[dF]FF[dW]KTFT-NH2)
5 | 100 nM | 200 nM | 100 nM | 100 nM | 12.6 nM | CC(C)[C@H](NC(=O)[C@H](CCCCN)NC(=O)[C@@H](Cc1c[nH]c2ccccc12)NC(=O)[C@H](Cc1ccc(O)cc1)NC(=O)[C@H](Cc1ccccc1)NC(=O)[C@H](N)Cc1ccccc1)C(=O)N[C@@H](Cc1ccccc1)C(=O)N[C@H](Cc1cccc2ccccc12)C(N)=O [BIM 23056] (H-[dF]FY[dW]KVF[d1Nal]-NH2)
6 | – | 0.07 nM | – | – | – | CC(C)[C@@H]1NC(=O)[C@H](CCCCN)NC(=O)[C@@H](Cc2c[nH]c3ccccc23)NC(=O)[C@H](Cc2ccc(O)cc2)NC(=O)[C@@H](NC(=O)[C@H](N)Cc2ccccc2)CSSC[C@@H](C(=O)N[C@@H](Cc2c[nH]c3ccccc23)C(N)=O)NC1=O [CAS_71306] (H-[dF]CY[dW]KVCW-NH2; disulfide 2-7)
7 | 0.5 nM | 0.31 nM | 1 nM | 0.79 nM | 0.19 nM | CSCC[C@H](NC(=O)[C@H](C)NC(=O)[C@@H]1CCCN1C(=O)[C@H](CC(N)=O)NC(=O)[C@@H](N)CO)C(=O)N[C@@H](C)C(=O)N1CCC[C@H]1C(=O)N[C@@H](CCCN=C(N)N)C(=O)N[C@@H](CCC(=O)O)C(=O)N[C@@H](CCCN=C(N)N)C(=O)N[C@@H](CCCCN)C(=O)N[C@@H](C)C(=O)NCC(=O)N[C@H]1CSSC[C@@H](C(=O)O)NC(=O)[C@H](CO)NC(=O)[C@H]([C@@H](C)O)NC(=O)[C@H](Cc2ccccc2)NC(=O)[C@H]([C@@H](C)O)NC(=O)[C@H](CCCCN)NC(=O)[C@H](Cc2c[nH]c3ccccc23)NC(=O)[C@H](Cc2ccccc2)NC(=O)[C@H](Cc2ccccc2)NC(=O)[C@H](CC(N)=O)NC(=O)[C@H](CCCCN)NC1=O [SS-25] (H-SNPAMAPRERKAGCKNFFWKTFTSC-OH; disulfide 14-25)
8 | 100 nM | 126 nM | 100 nM | 794 nM | 12.6 nM | CSCC[C@@H]1NC(=O)[C@@H](NC(=O)[C@H](CC(N)=O)NC(=O)[C@H](CC(C)C)NC(=O)[C@@H]2CCCN2C(=O)[C@H](CCCCN)NC(=O)[C@H](CO)NC(=O)[C@@H](NC(=O)[C@@H](NC(=O)[C@@H](NC(=O)[C@H](CC(N)=O)NC(=O)[C@@H](N)CC(=O)O)[C@@H](C)O)C(C)C)[C@@H](C)O)CSSC[C@@H](C(=O)O)NC(=O)[C@H](C)NC(=O)[C@H]([C@@H](C)O)NC(=O)[C@H](CCCN=C(N)N)NC(=O)[C@H](CO)NC(=O)[C@H](CCCCN)NC(=O)[C@H](Cc2c[nH]c3ccccc23)NC(=O)[C@H](Cc2ccccc2)NC(=O)[C@H](Cc2ccc(O)cc2)NC(=O)[C@H](CC(N)=O)NC1=O [SS-22] (H-DNTVTSKPLNCMNYFWKSRTAC-OH; disulfide 11-22)
9 | 6.3 nM | 0.79 nM | 100 nM | 100 nM | 0.1 nM | C[C@@H](O)[C@@H]1NC(=O)[C@H](CCCCN)NC(=O)[C@@H](Cc2c[nH]c3ccccc23)NC(=O)[C@H](Cc2c[nH]c3ccccc23)NC(=O)[C@H](Cc2ccccc2)NC(=O)CCCCCCNC(=O)[C@H](Cc2ccccc2)NC1=O [L-362855] (cyclo([Ahp]FW[dW]KTF))

Row | Structure (SMILES) | Ki [1] | Ki [2] | Ki [3] | Ki [4] | Ki [5]
10 | CC(C)[C@@H]1NC(=O)[C@H](CCCCN)NC(=O)[C@@H](Cc2c[nH]c3ccccc23)NC(=O)[C@H](Cc2ccc(O)cc2)NC(=O)[C@@H](NC(=O)[C@H](N)Cc2ccc3ccccc3c2)CSSC[C@@H](C(=O)N[C@H](C(N)=O)[C@@H](C)O)NC1=O [3-(2-Naphtyl)-D-Ala-L-Cys(1)-L-Tyr-D-Trp-L-Lys-L-Val-L-Cys(1)-L-Thr-NH2] | 63.1 nM | 0.5 nM | – | – | –
11 | C[C@@H](O)[C@@H]1NC(=O)[C@H](CCCCN)NC(=O)[C@@H](Cc2c[nH]c3ccccc23)NC(=O)[C@H](Cc2ccccc2)NC(=O)[C@@H]2CCCN2C(=O)[C@H](Cc2ccccc2)NC1=O (cyclo(PF[dW]KTF)) | 126 nM | 0.63 nM | 100 nM | 631 nM | 39.8 nM
